Laboratory results reported in ChEMBL document CHEMBL4316596, “Antimicrobial Peptides with High Proteolytic Resistance for Combating Gram-Negative Bacteria” (J Med Chem, 2019).

Experiments:
Escherichia coli [1] = assay: Antimicrobial activity against Escherichia coli ATCC 25922 after 24 hrs by NCCLS-protocol based assay; format: functional; conditions: ATCC 25922, 24 h
Escherichia coli [2] = assay: Antimicrobial activity against Escherichia coli UB1005 after 24 hrs by NCCLS-protocol based assay; format: functional; conditions: UB1005, 24 h
Escherichia coli [3] = assay: Antimicrobial activity against Escherichia coli 078 after 24 hrs by NCCLS-protocol based assay; format: functional; conditions: Escherichia coli, 078, 24 h
Escherichia coli [4] = assay: Antimicrobial activity against Escherichia coli K88 after 24 hrs by NCCLS-protocol based assay; format: functional; conditions: K88, 24 h
Escherichia coli [5] = assay: Antimicrobial activity against Escherichia coli K99 after 24 hrs by NCCLS-protocol based assay; format: functional; conditions: K99, 24 h
Pseudomonas aeruginosa [6] = assay: Antimicrobial activity against Pseudomonas aeruginosa ATCC 27853 after 24 hrs by NCCLS-protocol based assay; format: functional; conditions: ATCC 27853, 24 h
Pseudomonas aeruginosa [7] = assay: Antimicrobial activity against Pseudomonas aeruginosa PAO1 after 24 hrs by NCCLS-protocol based assay; format: functional; conditions: PAO1, 24 h
Pseudomonas aeruginosa [8] = assay: Antimicrobial activity against Pseudomonas aeruginosa CICC 21630 clinical isolates after 24 hrs by NCCLS-protocol based assay; format: functional; conditions: CICC 21630, 24 h
Pseudomonas aeruginosa [9] = assay: Antimicrobial activity against Pseudomonas aeruginosa 26305 clinical isolates after 24 hrs by NCCLS-protocol based assay; format: functional; conditions: Pseudomonas aeruginosa, 26305, 24 h
Pseudomonas aeruginosa [10] = assay: Antimicrobial activity against Pseudomonas aeruginosa CICC 21625 clinical isolates after 24 hrs by NCCLS-protocol based assay; format: functional; conditions: CICC 21625, 24 h
Pseudomonas aeruginosa [11] = assay: Antimicrobial activity against Pseudomonas aeruginosa 25349 clinical isolates after 24 hrs by NCCLS-protocol based assay; format: functional; conditions: Pseudomonas aeruginosa, 25349, 24 h
Salmonella typhimurium [12] = assay: Antimicrobial activity against Salmonella typhimurium ATCC 14028 after 24 hrs by NCCLS-protocol based assay; format: functional, Salmonella enterica subsp. enterica serovar Typhimurium; conditions: Salmonella enterica, ATCC 14028, 24 h
Salmonella typhimurium [13] = assay: Antimicrobial activity against Salmonella typhimurium C7731 after 24 hrs by NCCLS-protocol based assay; format: functional, Salmonella enterica subsp. enterica serovar Typhimurium; conditions: Salmonella enterica, C7731, 24 h
[14] = Antimicrobial activity against Salmonella pullorum C7913 after 24 hrs by NCCLS-protocol based assay; format: functional, Salmonella enterica subsp. enterica serovar Pullorum; conditions: Salmonella enterica, C7913, 24 h
Acinetobacter baumannii [15] = assay: Antimicrobial activity against Acinetobacter baumannii after 24 hrs by NCCLS-protocol based assay; format: functional
Klebsiella pneumoniae [16] = assay: Antimicrobial activity against Klebsiella pneumoniae after 24 hrs by NCCLS-protocol based assay; format: functional
Escherichia coli [17] = assay: Bactericidal activity against Escherichia coli ATCC 25922 incubated for 4 hrs followed by culture spread on agar plates and cultured overnight; format: functional; conditions: ATCC 25922, 4 h, read-out: MBC>99.9
Escherichia coli [18] = assay: Bactericidal activity against Escherichia coli ATCC 25922 incubated for 4 hrs followed by culture spread on agar plates and cultured overnight in presence of NaCl; format: functional; conditions: ATCC 25922, 4 h, read-out: MBC>99.9
Escherichia coli [19] = assay: Bactericidal activity against Escherichia coli ATCC 25922 incubated for 4 hrs followed by culture spread on agar plates and cultured overnight in presence of KCl; format: functional; conditions: ATCC 25922, 4 h, read-out: MBC>99.9
Escherichia coli [20] = assay: Bactericidal activity against Escherichia coli ATCC 25922 incubated for 4 hrs followed by culture spread on agar plates and cultured overnight in presence of CaCl2; format: functional; conditions: ATCC 25922, 4 h, read-out: MBC>99.9
Escherichia coli [21] = assay: Bactericidal activity against Escherichia coli ATCC 25922 incubated for 4 hrs followed by culture spread on agar plates and cultured overnight in presence of ZnCl2; format: functional; conditions: ATCC 25922, 4 h, read-out: MBC>99.9
Escherichia coli [22] = assay: Bactericidal activity against Escherichia coli ATCC 25922 incubated for 4 hrs followed by culture spread on agar plates and cultured overnight in presence of FeCl3; format: functional; conditions: ATCC 25922, 4 h, read-out: MBC>99.9
Escherichia coli [23] = assay: Bactericidal activity against Escherichia coli ATCC 25922 incubated for 4 hrs followed by culture spread on agar plates and cultured overnight in presence of NH4Cl; format: functional; conditions: ATCC 25922, 4 h, read-out: MBC>99.9
Escherichia coli [24] = assay: Bactericidal activity against Escherichia coli ATCC 25922 incubated for 4 hrs followed by culture spread on agar plates and cultured overnight in presence of MgCl2; format: functional; conditions: ATCC 25922, 4 h, read-out: MBC>99.9
Escherichia coli [25] = assay: Bactericidal activity against Escherichia coli ATCC 25922 incubated for 4 hrs followed by culture spread on agar plates and cultured overnight in presence of 50% serum albumin; format: functional; conditions: ATCC 25922, 4 h, read-out: MBC>99.9
Escherichia coli [26] = assay: Bactericidal activity against Escherichia coli ATCC 25922 incubated for 4 hrs followed by culture spread on agar plates and cultured overnight in presence of 25% serum albumin; format: functional; conditions: ATCC 25922, 4 h, read-out: MBC>99.9
Escherichia coli [27] = assay: Bactericidal activity against Escherichia coli ATCC 25922 incubated for 4 hrs followed by culture spread on agar plates and cultured overnight in presence of 12.5% serum albumin; format: functional; conditions: ATCC 25922, 4 h, read-out: MBC>99.9
Escherichia coli [28] = assay: Bactericidal activity against Escherichia coli UB1005 incubated for 4 hrs followed by culture spread on agar plates and cultured overnight; format: functional; conditions: UB1005, 4 h, read-out: MBC>99.9
Escherichia coli [29] = assay: Bactericidal activity against Escherichia coli 078 incubated for 4 hrs followed by culture spread on agar plates and cultured overnight; format: functional; conditions: Escherichia coli, 078, 4 h; read-out: MBC>99.9
Escherichia coli [30] = assay: Bactericidal activity against Escherichia coli K88 incubated for 4 hrs followed by culture spread on agar plates and cultured overnight; format: functional; conditions: K88, 4 h, read-out: MBC>99.9
Escherichia coli [31] = assay: Bactericidal activity against Escherichia coli K99 incubated for 4 hrs followed by culture spread on agar plates and cultured overnight; format: functional; conditions: K99, 4 h, read-out: MBC>99.9
Pseudomonas aeruginosa [32] = assay: Bactericidal activity against Pseudomonas aeruginosa ATCC 27853 incubated for 4 hrs followed by culture spread on agar plates and cultured overnight; format: functional; conditions: ATCC 27853, 4 h, read-out: MBC>99.9
Pseudomonas aeruginosa [33] = assay: Bactericidal activity against Pseudomonas aeruginosa PAO1 incubated for 4 hrs followed by culture spread on agar plates and cultured overnight; format: functional; conditions: PAO1, 4 h, read-out: MBC>99.9
Pseudomonas aeruginosa [34] = assay: Bactericidal activity against Pseudomonas aeruginosa CICC 21630 clinical isolates incubated for 4 hrs followed by culture spread on agar plates and cultured overnight; format: functional; conditions: CICC 21630, 4 h, read-out: MBC>99.9
Pseudomonas aeruginosa [35] = assay: Bactericidal activity against Pseudomonas aeruginosa 26305 clinical isolates incubated for 4 hrs followed by culture spread on agar plates and cultured overnight; format: functional; conditions: Pseudomonas aeruginosa, 26305, 4 h; read-out: MBC>99.9
Pseudomonas aeruginosa [36] = assay: Bactericidal activity against Pseudomonas aeruginosa CICC 21625 clinical isolates incubated for 4 hrs followed by culture spread on agar plates and cultured overnight; format: functional; conditions: CICC 21625, 4 h, read-out: MBC>99.9
Pseudomonas aeruginosa [37] = assay: Bactericidal activity against Pseudomonas aeruginosa 25349 clinical isolates incubated for 4 hrs followed by culture spread on agar plates and cultured overnight; format: functional; conditions: Pseudomonas aeruginosa, 25349, 4 h; read-out: MBC>99.9
Salmonella typhimurium [38] = assay: Bactericidal activity against Salmonella typhimurium ATCC 14028 incubated for 4 hrs followed by culture spread on agar plates and cultured overnight; format: functional, Salmonella enterica subsp. enterica serovar Typhimurium; conditions: Salmonella enterica, ATCC 14028, 4 h; read-out: MBC>99.9
Salmonella typhimurium [39] = assay: Bactericidal activity against Salmonella typhimurium C7731 incubated for 4 hrs followed by culture spread on agar plates and cultured overnight; format: functional, Salmonella enterica subsp. enterica serovar Typhimurium; conditions: Salmonella enterica, C7731, 4 h; read-out: MBC>99.9
[40] = Bactericidal activity against Salmonella pullorum C7913 incubated for 4 hrs followed by culture spread on agar plates and cultured overnight; format: functional, Salmonella enterica subsp. enterica serovar Pullorum; conditions: Salmonella enterica, C7913, 4 h; read-out: MBC>99.9
Acinetobacter baumannii [41] = assay: Bactericidal activity against Acinetobacter baumannii incubated for 4 hrs followed by culture spread on agar plates and cultured overnight; format: functional; conditions: read-out: MBC>99.9
Klebsiella pneumoniae [42] = assay: Bactericidal activity against Klebsiella pneumoniae incubated for 4 hrs followed by culture spread on agar plates and cultured overnight; format: functional; conditions: read-out: MBC>99.9

H-LKPLLKPLLKPLLKPLLKPLLKPL-NH2
MIC95 (Escherichia coli [1]): 1 µM
MIC95 (Escherichia coli [2]): 2 µM
MIC95 (Escherichia coli [3]): 2 µM
MIC95 (Escherichia coli [4]): 1 µM
MIC95 (Escherichia coli [5]): 2 µM
MIC95 (Pseudomonas aeruginosa [6]): 4 µM
MIC95 (Pseudomonas aeruginosa [7]): 4 µM
MIC95 (Pseudomonas aeruginosa [8]): 32 µM
MIC95 (Pseudomonas aeruginosa [9]): 64 µM
MIC95 (Pseudomonas aeruginosa [10]): 64 µM
MIC95 (Pseudomonas aeruginosa [11]): 32 µM
MIC95 (Salmonella typhimurium [12]): 4 µM
MIC95 (Salmonella typhimurium [13]): 8 µM
MIC95 [14]: 4 µM
MIC95 (Acinetobacter baumannii [15]): 4 µM
MIC95 (Klebsiella pneumoniae [16]): 8 µM
MBC (Escherichia coli [17]): 2 µM
MBC (Escherichia coli [18]): 16 µM
MBC (Escherichia coli [19]): 1 µM
MBC (Escherichia coli [20]): > 128 µM
MBC (Escherichia coli [21]): 2 µM
MBC (Escherichia coli [22]): 4 µM
MBC (Escherichia coli [23]): 4 µM
MBC (Escherichia coli [24]): 16 µM
MBC (Escherichia coli [25]): > 128 µM
MBC (Escherichia coli [26]): > 128 µM
MBC (Escherichia coli [27]): 8 µM
MBC (Escherichia coli [28]): 4 µM
MBC (Escherichia coli [29]): 2 µM
MBC (Escherichia coli [30]): 2 µM
MBC (Escherichia coli [31]): 2 µM
MBC (Pseudomonas aeruginosa [32]): 4 µM
MBC (Pseudomonas aeruginosa [33]): 8 µM
MBC (Pseudomonas aeruginosa [34]): 64 µM
MBC (Pseudomonas aeruginosa [35]): > 64 µM
MBC (Pseudomonas aeruginosa [36]): 64 µM
MBC (Pseudomonas aeruginosa [37]): 32 µM
MBC (Salmonella typhimurium [38]): 8 µM
MBC (Salmonella typhimurium [39]): 8 µM
MBC [40]: 8 µM
MBC (Acinetobacter baumannii [41]): 4 µM
MBC (Klebsiella pneumoniae [42]): 8 µM

H-LRPLLRPLLRPLLRPLLRPLLRPL-NH2
MIC95 (Escherichia coli [1]): 2 µM
MIC95 (Escherichia coli [2]): 2 µM
MIC95 (Escherichia coli [3]): 2 µM
MIC95 (Escherichia coli [4]): 2 µM
MIC95 (Escherichia coli [5]): 2 µM
MIC95 (Pseudomonas aeruginosa [6]): 8 µM
MIC95 (Pseudomonas aeruginosa [7]): 4 µM
MIC95 (Pseudomonas aeruginosa [8]): 8 µM
MIC95 (Pseudomonas aeruginosa [9]): 32 µM
MIC95 (Pseudomonas aeruginosa [10]): 32 µM
MIC95 (Pseudomonas aeruginosa [11]): 32 µM
MIC95 (Salmonella typhimurium [12]): 4 µM
MIC95 (Salmonella typhimurium [13]): 2 µM
MIC95 [14]: 2 µM
MIC95 (Acinetobacter baumannii [15]): 2 µM
MIC95 (Klebsiella pneumoniae [16]): 8 µM
MBC (Escherichia coli [17]): 2 µM
MBC (Escherichia coli [18]): 4 µM
MBC (Escherichia coli [19]): 2 µM
MBC (Escherichia coli [20]): > 128 µM
MBC (Escherichia coli [21]): 2 µM
MBC (Escherichia coli [22]): 4 µM
MBC (Escherichia coli [23]): 2 µM
MBC (Escherichia coli [24]): 4 µM
MBC (Escherichia coli [25]): 32 µM
MBC (Escherichia coli [26]): 16 µM
MBC (Escherichia coli [27]): 8 µM
MBC (Escherichia coli [28]): 4 µM
MBC (Escherichia coli [29]): 2 µM
MBC (Escherichia coli [30]): 4 µM
MBC (Escherichia coli [31]): 4 µM
MBC (Pseudomonas aeruginosa [32]): 16 µM
MBC (Pseudomonas aeruginosa [33]): 8 µM
MBC (Pseudomonas aeruginosa [34]): 16 µM
MBC (Pseudomonas aeruginosa [35]): 32 µM
MBC (Pseudomonas aeruginosa [36]): 32 µM
MBC (Pseudomonas aeruginosa [37]): 32 µM
MBC (Salmonella typhimurium [38]): 8 µM
MBC (Salmonella typhimurium [39]): 8 µM
MBC [40]: 4 µM
MBC (Acinetobacter baumannii [41]): 4 µM
MBC (Klebsiella pneumoniae [42]): 8 µM
